According to patent US20230255953A1, “USE OF ROLUPERIDONE IN PREVENTING RELAPSE IN SCHIZOPHRENIA PATIENTS” (Minerva Neurosciences, Inc., priority 2022, published 2023):

What was measured:
[1] = test system: patients with negative symptoms of schizophrenia; experiment: Study #1 (MIN-101C03): safety and tolerability (TEAEs, QTcF); type: in vivo, human; conditions: for Patients with QTcF prolongation >500 msec and change from Baseline in QTcF >60 msec: DB period
Source text: Phase 2b Study #1 (also referred to herein as “MIN-101C03”) was a Phase 2b, double-blind (“DB”), placebo-controlled, randomized, multicenter 12-week study to evaluate the efficacy, safety, and tolerability of Roluperidone in patients ≥18 years to ≤60 years with negative symptoms of schizophrenia, followed by a 24-week open-label (“OL”) extension. The primary objective of the study was to evaluate the efficacy of Roluperidone compared to placebo in improving the negative symptoms of schizophrenia as measured by the change from Baseline in the PANSS negative factor score of the PSM (“PANSS PSM”) over 12 weeks of treatment.
The study consisted of a pretreatment screening period of up to 28 days (including washout), a 12-week, DB, placebo-controlled period, and a 24-week OL period. Eligible patients (who were symptomatically stable for at least 3 months and had scores of at least 20 on the PANSS negative subscale score) were randomized in a 1:1:1 ratio to receive oral Roluperidone (a modified-release, “MR”, formulation) 32 mg QD, Roluperidone 64 mg QD, or placebo for 12 weeks. […] During the 24-week, OL treatment extension period, patients who were initially randomized to Roluperidone 32 mg or 64 mg continued on the same dose, while patients who were initially randomized to placebo crossed over to Roluperidone 32 mg or 64 mg in a 1:1 ratio.
Clinically significant QTcF prolongation >500 msec and change from Baseline in QTcF>60 msec were reported in 2 patients of the 64 mg Roluperidone group, and in no patients in the 32 mg Roluperidone group or in the placebo group during the DB period of the study. The mean changes across all vital sign parameters were small from Baseline to the respective study visits in the DB period of the study.

[2] = test system: patients with negative symptoms of schizophrenia; experiment: Integrated analysis (pooled ITT): PSP Total score; type: in vivo, human; set-up: key to PSP Total score, LS mean change from Baseline compared with placebo / PSP Total Score change from Baseline, Median: change in PSP Total score (scale 1-100, higher = better functioning); conditions: for PSP Total Score change from Baseline, LS mean (SE) / PSP Total Score change from Baseline, Mean (SD) / PSP Total Score change from Baseline, Median / PSP Total Score, Difference (95% CI) in LS mean (vs placebo): DB; for PSP Total Score change from Baseline, LS mean (SE) / PSP Total Score change from Baseline, Mean (SD) / PSP Total Score change from Baseline, Median / PSP Total Score, Difference (95% CI) in LS mean (vs placebo) / PSP Total score, LS mean change from Baseline compared with placebo: pooled ITT; for PSP Domain Disturbing and Aggressive Behavior, Change from Baseline (LS Means [SEM]) / PSP Domain Personal and Social Relationships, Change from Baseline (LS Means [SEM]) / PSP Domain Self-Care, Change from Baseline (LS Means [SEM]) / PSP Domain Socially Useful Activities, Change from Baseline (LS Means [SEM]) / PSP Total Score, Change from Baseline (LS Means [SEM]): ITT; for Patients with high improvement in PSP Total score (magnitude of change ≥10) / Patients with moderate improvement in PSP Total score (magnitude of change 7-9) / Patients with moderate or high improvement in PSP Total score, total: pooled; for Patients with 7-Point Improvement in PSP Total Score at Week 12, percent / Number of Patients with 7-Point improvement in PSP Total Score at Week 12: responder analysis; for Number of Patients with 7-Point improvement in PSP Total Score at Week 12: n/N
Source text: The primary integrated analysis of the efficacy of Roluperidone compared with placebo for the treatment of negative symptoms of schizophrenia is based on the change from Baseline in the PANSS Marder's negative symptoms factor score (in this document referred to as NSFS) to Week 12. Efficacy is also supported by the analysis of change from Baseline in the PSP Total score and the CGI-S to Week 12.
The PSP is a validated clinician-rated scale intended to reflect real-life situations that measures personal and social functioning in 4 domains: (a) socially useful activities, (b) personal and social relationships, (c) self-care, and (d) disturbing and aggressive behaviors. The score is based on the assessment of a patient's performance in the 4 domains. The PSP Total score is a single measurement of functioning ranging from 1 to 100, where a higher score represents better functioning. A score of 91 to 100 indicates excellent functioning in all 4 main areas; the patient is held in high consideration for their good qualities, copes adequately with life problems, and is involved in a wide range of interests and activities. A score of 1 to 10 indicates a lack of autonomy in basic functioning with extreme behaviors but without survival risk (score 6 to 10) or with survival risk (score 1 to 5). […] Review of the relevant scientific literature and the analysis of the psychometric properties of the 4 domains that result in the generation of the PSP Total score were supportive of the appropriateness and cross-cultural applicability of the use of the PSP in drug development for the indication of negative symptoms of schizophrenia The PSP was assessed at the timepoints described in Table 6. The changes from Baseline in the PSP Total score and individual domain scores after 12 weeks of treatment were exploratory efficacy endpoints in Study MIN-101C03, and the Total score was the key secondary efficacy endpoint and the PSP domain scores were exploratory endpoints in Study MIN-101C07.
The Efficacy data from Study Nos. 1 and 2 were pooled. The majority of patients in the pooled ITT population completed the DB period (502 patients overall, 66.3%), with similar rates in each treatment group (placebo: 69.8%, 32 mg Roluperidone: 65.3%, and 64 mg Roluperidone: 63.8%) (Table 12). The majority (62.7%) of those who completed the DB period entered the OL period. The most common reason for discontinuation during the DB period among patients overall was withdrawal of consent (15.6%), followed by adverse events (7.3%) and lack of efficacy (5.4%) (Table 12). […] Approximately twice as many patients in the Roluperidone groups (32 mg: 8.5%; 64 mg: 9.1%) discontinued due to adverse events compared with patients in the placebo group (4.3%). More patients in the placebo group discontinued due to lack of efficacy (6.7%) than in the Roluperidone groups (32 mg: 4.4%; 64 mg: 5.1%). The low number of patients who discontinued due to lack of efficacy or withdrawal of consent probably reflects a low level of worsening of positive symptoms.
The integrated analysis supporting the efficacy of Roluperidone as a treatment for the negative symptoms of schizophrenia in adults is presented below.

## 1H-Isoindol-1-one,2-[ [1-[2-(4-fluorophenyl)-2-oxoethyl]-4-piperidinyl]methyl]-2,3-dihydro-, hydrochloride, hydrate (1:1:2) [Roluperidone]
[1]; 32 mg
  Patients with QTcF prolongation >500 msec and change from Baseline in QTcF >60 msec: no patients
[1]; 64 mg
  Patients with QTcF prolongation >500 msec and change from Baseline in QTcF >60 msec: 2 patients
[1]; 32 and 64 mg, up to 36 weeks of treatment
  Tolerability (TEAEs, SAEs): generally well tolerated
[1]; Roluperidone groups
  QTcF prolongation >450 msec and QTcF increases relative to baseline of ≥30 msec: dose-dependent manner
[2]; 32 mg, Week 4
  PSP Total Score change from Baseline, LS mean (SE): 1.6 (0.52)
  PSP Total Score change from Baseline, Mean (SD): 1.5 (7.87)
  PSP Total Score change from Baseline, Median: 0.0
  PSP Total Score, Difference (95% CI) in LS mean (vs placebo): 0.7
[2]; 32 mg, Week 8
  PSP Total Score change from Baseline, LS mean (SE): 2.9 (0.62)
  PSP Total Score change from Baseline, Mean (SD): 3.6 (7.04)
  PSP Total Score change from Baseline, Median: 2.0
  PSP Total Score, Difference (95% CI) in LS mean (vs placebo): 0.6
[2]; 32 mg, Week 12
  PSP Total Score change from Baseline, LS mean (SE): 3.3 (0.71)
  PSP Total Score change from Baseline, Mean (SD): 3.5 (10.03)
  PSP Total Score change from Baseline, Median: 2.0
  PSP Total Score, Difference (95% CI) in LS mean (vs placebo): 0.5
  PSP Domain Disturbing and Aggressive Behavior, Change from Baseline (LS Means [SEM]): −0.1 (0.04)
  PSP Domain Personal and Social Relationships, Change from Baseline (LS Means [SEM]): −0.3 (0.05)
  PSP Domain Self-Care, Change from Baseline (LS Means [SEM]): −0.3 (0.05)
  PSP Domain Socially Useful Activities, Change from Baseline (LS Means [SEM]): −0.3 (0.05)
  PSP Total Score, Change from Baseline (LS Means [SEM]): 3.3 (0.71)
  PSP Total score, LS mean change from Baseline compared with placebo: 0.5
[2]; 32 mg
  Patients with high improvement in PSP Total score (magnitude of change ≥10): 26%
  Patients with moderate improvement in PSP Total score (magnitude of change 7-9): 7%
  Patients with moderate or high improvement in PSP Total score, total: 33%
  Patients with 7-Point Improvement in PSP Total Score at Week 12, percent: 33%
  Number of Patients with 7-Point improvement in PSP Total Score at Week 12: 54/166
[2]; 64 mg, Week 4
  PSP Total Score change from Baseline, LS mean (SE): 3.1 (0.52)
  PSP Total Score change from Baseline, Mean (SD): 3.1 (8.33)
  PSP Total Score change from Baseline, Median: 1.0
  PSP Total Score, Difference (95% CI) in LS mean (vs placebo): 2.1
[2]; 64 mg, Week 8
  PSP Total Score change from Baseline, LS mean (SE): 4.9 (0.61)
  PSP Total Score change from Baseline, Mean (SD): 4.8 (6.61)
  PSP Total Score change from Baseline, Median: 3.0
  PSP Total Score, Difference (95% CI) in LS mean (vs placebo): 2.6
[2]; 64 mg, Week 12
  PSP Total Score change from Baseline, LS mean (SE): 6.4 (0.69)
  PSP Total Score change from Baseline, Mean (SD): 6.4 (10.32)
  PSP Total Score change from Baseline, Median: 4.5
  PSP Total Score, Difference (95% CI) in LS mean (vs placebo): 3.6
  PSP Domain Disturbing and Aggressive Behavior, Change from Baseline (LS Means [SEM]): −0.0 (0.04)
  PSP Domain Personal and Social Relationships, Change from Baseline (LS Means [SEM]): −0.4 (0.05)
  PSP Domain Self-Care, Change from Baseline (LS Means [SEM]): −0.3 (0.05)
  PSP Domain Socially Useful Activities, Change from Baseline (LS Means [SEM]): −0.4 (0.05)
  PSP Total Score, Change from Baseline (LS Means [SEM]): 6.4 (0.69)
  PSP Total score, LS mean change from Baseline compared with placebo: 3.6
[2]; 64 mg
  Patients with high improvement in PSP Total score (magnitude of change ≥10): 36%
  Patients with moderate improvement in PSP Total score (magnitude of change 7-9): 7%
  Patients with moderate or high improvement in PSP Total score, total: 43%
  Patients with 7-Point Improvement in PSP Total Score at Week 12, percent: 43%
  Number of Patients with 7-Point improvement in PSP Total Score at Week 12: 76/176
[2]; Roluperidone Total, Week 4
  PSP Total Score change from Baseline, Mean (SD): 2.3 (8.14)
  PSP Total Score change from Baseline, Median: 0.0
[2]; Roluperidone Total, Week 8
  PSP Total Score change from Baseline, Mean (SD): 4.2 (6.84)
  PSP Total Score change from Baseline, Median: 3.0
[2]; Roluperidone Total, Week 12
  PSP Total Score change from Baseline, Mean (SD): 5.0 (10.27)
  PSP Total Score change from Baseline, Median: 3.0
